# Assay results published in US10154991B2, “Anesthetic compounds and related methods of use” (priority 2012, dated 2018).
# “And” between values parts separate entries of the source, which are not always exact repeats. Equal entries are not always repeated. Where two headings read alike, the source gives them in different places.
# Assays:
# [1] = Octanol:water partition coefficients; type: physicochemical; details: 10 mM Tris pH 7.4; read-out: Octanol/Water Partition Coefficient ± SD (converted)
# Protocol: One mg of each hypnotic was added to 10 ml of water buffered with 10 mM Tris (pH 7.4) and 0.5 ml or 1 ml of octanol. The mixture was stirred overnight and then centrifuged to more fully separate the organic and aqueous phases. The relative hypnotic concentrations in each phase (i.e. the partition coefficient) were determined by high performance liquid chromatography as described for blood.
# ICR mice = assay: In vivo sedative/hypnotic testing, IV bolus, mice; design: species or system mouse; details: mice
# Protocol: (§1) Animals were housed in a dedicated room at the vivarium of VivoPath Inc., located at Redstone Center, 55 Union Street, Worcester, Mass. Housing and care was as specified in the USDA Animal Welfare Act (9 CFR, Parts 1, 2, and 3) and as described in the Guide for the Care and Use of Laboratory Animals from the National Research Council. Environmental conditions of housing rooms are set at the following ranges: temperature: 70±7° F. (22±4° C.), humidity: 50±20%, light cycle: 12-hour light/12-hour dark cycle—lights on at 7 am and off at 7 pm., air changes: ten or more air changes per hour with 100% fresh air. The animals' body weights were measured prior to the first dose on each experimental day.
# Adult ICR mice (20-30 g) were purchased from Harlan (South Easton, Mass.). Drugs were administered as intravenous bolus injection in a tail vein.
# (§2) Drugs were prepared in either dimethylsulfoxide/saline or saline vehicle or hydroxypropyl-β-cyclodextrin (20% in water, pH 7.0) solution and were administered as an intravenous bolus injection. Animals received 1-4 doses of drug(s) during an experimental day, either ascending doses or different drugs. Doses were administered at intervals equal to the longer of 1 h or 10-times the duration of apparent sedative/hypnotic effects from the previous dose. The sedative/hypnotic properties of the drugs were evaluated by observation of the rats, ranging from mild excitation, mild sedation apparent due to reduced activity, and moderate sedation to hypnosis reflected by loss of righting reflex (LORR, the ability to place rear and hind legs under the body, as well as attenuation/loss of nociceptive reflexes).
# Sprague-Dawley rats = assay: In vivo sedative/hypnotic testing, IV bolus, rats; design: species or system rat; details: rats
# Protocol: as §1
# Adult male Sprague-Dawley rats (225-300 g) were purchased from Harlan (South Easton, Mass.).
# as §2
# [2] = Pharmacokinetics in dogs, IV bolus and bolus plus infusion; type: in vivo, dog
# [3] = in vivo
# [4] = test system: 68 receptors, ion channels and transporters; assay: radioligand binding screen; details: 10 μM, each radioligand
# rats = assay: loss of righting reflexes (LORR) assay after IV bolus
# Protocol: Adult male Sprague-Dawley rats (230-350 gm) were purchased from Charles River Laboratories (Wilmington, Mass.) and housed in the Massachusetts General Hospital Center for Comparative Medicine animal care facility. All drugs were administered through a femoral venous catheter pre-implanted by the vendor prior to animal delivery to our animal care facility.
# Immediately after injection, rats were turned supine. […] A stopwatch was used to measure the duration of LORR, which was defined as the time from drug injection until the animal spontaneously righted itself.
smiles,measurement,setting,value
"COC(=O)C1(OC(=O)c2cncn2[C@H](C)c2ccccc2)CC1 [Cyclopropyl- methoxycarbonyl metomidate, cyclopropyl-methoxycarbonyl metomidate]",logD,[1],2.62
same,slope of duration of LORR vs logarithm of dose,ICR mice,approximately 7
same,slope of duration of LORR vs logarithm of dose,Sprague-Dawley rats,approximately 10
same,first-phase decline of levels,"[2]; IV bolus 0.25-12 mg/kg, first 5-10 minutes",> 10 fold
same,venous blood concentration when sedated/anesthetized,"[2]; bolus and continuous infusion, listed as cyclopropyl-MOC-metomidate",> 250 ng/mL and > 0.8 μM
same,concentration at 24 h,"[2]; both sexes, dog, in vivo, IV bolus, read-out: level in 24-hour PK samples (below level of quantification)",< 0.1 ng/mL
same,half-life,"[2]; both sexes, dog, in vivo, IV bolus, read-out: secondary terminal elimination half-life",5 to 10 min
same,half-life,"[2]; dog, in vivo, read-out: half-life of secondary phase of decline after infusion",~20 min
same,decline of levels after discontinuation of infusion,[2]; first 10-30 minutes after infusion,~50 fold
same,plasma concentrations associated with anesthesia,[3],200 to 3000 nM
same,inhibition of radioligand binding,[4],no more than 25%
same,ED50,"rats; Rattus norvegicus, iv, read-out: ED50 ± SD",0.69 ± 0.04 mg/kg
same,hypnotic potency compared with methoxycarbonyl etomidate and etomidate,"rats; rat, in vivo",nearly an order of magnitude higher than that of methoxycarbonyl etomidate and similar to that of etomidate
same,in vivo duration of action compared with methoxycarbonyl etomidate and etomidate,"rats; rat, in vivo",intermediate between those of methoxycarbonyl etomidate and etomidate
